Results published in patent US9144569B2, “Methods of administering an aromatase inhibitor, prostaglandin and GnRH for regulating ovulation in cattle” (UNIVERSITY OF SASKATCHEWAN, priority 2010, dated 2015).
Like-named read-outs stand apart in the source and are kept apart here.

Assays:
[1] = test system: plasma estradiol; test: Example I: plasma estradiol by ELISA after single iv dose; assay type: in vivo, cattle; conditions: doses combined
Procedure: (§1) Heifers in which a CL was detected during the initial examination were given […] cloprostenol (PGF, Estrumate™, Schering-Plough Animal Health, Pointe-Claire, QC, Canada) intramuscularly (im) to induce regression of the CL and to synchronize ovulation. Heifers were examined daily by transrectal ultrasonography to detect ovulation. Transvaginal ultrasound-guided follicular aspiration of follicles ≧5 mm was performed five to eight days after ovulation to synchronize wave emergence. Heifers were examined daily by transrectal ultrasonography to detect follicular wave emergence, which was expected 1 to 1.5 days after follicular ablation. Four days after follicular ablation (approximately 2.5 days after follicular wave emergence), and at the time follicular dominance becomes apparent, heifers were assigned randomly to the following treatment groups and given a single intravenous dose of 1) 500 μg/kg of letrozole (high dose group, n=9), 2) 250 μg/kg of letrozole (medium dose group, n=10), 3) 125 μg/kg of letrozole (low dose group, n=10), or 4) 20 ml of phosphate buffered saline (PBS control group, n=10). For practical purposes, the dose of letrozole was calculated based on an average weight of 400 kg for all heifers. The average oral dose used in women (2.5-5 mg per day for 5 days) was used to estimate the medium dose for cattle. The high and low doses were set as double and half the medium dose, respectively. The day of treatment was defined as Day 0. For intravenous injection, letrozole was prepared in 95% ethanol at a final concentration of 5 mg per ml, resulting in an injection volume of 10-40 ml. The experiment was performed in four replicates (n=2-3 per group per replicate) and each heifer was used only once.
Statistical analyses were done using the Statistical Analysis System software package (SAS Learning Edition 9.1, 2006; SAS Institute Inc., Cary, N.C., USA). Time-series hormone data, plasma letrozole concentration, and follicular diameter profiles were analyzed by repeated measures, using the PROC MIXED procedure. The main effects were treatment (high, medium and low dose, and control), time, and their interactions.

[2] = Example I: plasma letrozole concentration (LC/MS/MS) and non-compartmental pharmacokinetics after single iv dose; assay type: in vivo, cattle; conditions: for AUC(0-t): read-out: Area under the curve (AUClast); for Cmax: read-out: Maximal concentration (Cmax); for clearance: read-out: Systemic clearance (Cls) (converted); for half-life: read-out: Half-life (T1/2) (converted); for MRT: read-out: Mean residence time (MRT)
Procedure: as §1
Blood samples were collected by jugular or coccygeal venipuncture into 10 ml heparinized vacuum tubes (Becton Dickinson Vacutainer Systems, Franklin Lakes, N.J., USA). Blood samples were collected at 0, 0.25, 0.5, 1, 1.5, 2, 3, 4, 6, 8, 12, 24, 36, 48 hours post-treatment using an indwelling jugular catheter as previously described and daily thereafter to the first post-treatment ovulation. Blood samples were centrifuged at 1500×g for 20 minutes; plasma was separated and stored in plastic tubes at −20° C.
Plasma concentrations of letrozole were determined using high performance liquid chromatography tandem mass spectrometry (LC/MS/MS). To extract letrozole from the samples, 250 μL of a buffer solution (0.1M ammonium) were added to 250 μL of plasma followed by the addition of 5 mL of methyl t-butyl ether (MTBE) and vortexed for 15 seconds. The organic layer was removed by pipetting and transferred to a fresh 15 mL plastic tube. This second tube was dried by gentle nitrogen gas flow. The dried extract was reconstituted in 1 mL of 100% ethanol, sonicated for 5 minutes and transferred to a labelled vial for further analysis. Separation was accomplished by HPLC (Agilent 1200, Santa Clara, Calif., USA) fitted with an analytical column (50×2.1 mm, 3 μm particle size; Thermo Scientific Betasil C18, Waltham, Mass., USA) operated at 35° C. Gradient conditions were used at a flow rate of 250 μL/min, starting at 85% A (0.1% acetic acid) and 15% B (0.1% acetic acid in acetonitrile). Initial conditions were held for 2 min and then ramped to 100% B at 6 min, held until 9 min, decreased to 0% B at 11 minutes, and returned to initial conditions at 13 minutes, and held constant until 15 minutes. Mass spectra were collected using a tandem mass spectrometer (Applied Bioscience SCIEX 3000, Foster City, Calif., USA) fitted with an electrospray ionization source, operated in the negative ionization mode. Chromatograms were recorded using multiple reaction monitoring (MRM) mode, where at least two transitions per-analyte were monitored. […]

[3] = female, bovine, plasma, 125 ug/kg, 125 μg/kg single iv, n=9
[4] = female, bovine, plasma, 250 ug/kg, 250 μg/kg single iv, n=9
[5] = female, bovine, plasma, 500 ug/kg, 500 μg/kg single iv, n=9
[6] = female, bovine, plasma, iv, 125 ug/kg, 125 μg/kg single iv, n=9
[7] = female, bovine, plasma, iv, 250 ug/kg, 250 μg/kg single iv, n=9
[8] = female, bovine, plasma, iv, 500 ug/kg, 500 μg/kg single iv, n=9
[9] = female, bovine, plasma, iv, doses combined

Structure (SMILES): N#Cc1ccc(C(c2ccc(C#N)cc2)n2cncn2)cc1 [Letrozole, letrozole]
- plasma estradiol concentration ([1]; 0 hours (at treatment), mean±SEM): 15.2 ± 3.01 pg/mL
- plasma estradiol concentration ([1]; 24 hours after single iv dose, P=0.03 vs 0 hours): 8.0 ± 1.51 pg/mL
- decrease of plasma estradiol from 0 to 24 hours after treatment ([1]; single iv dose): ~50%
- mean plasma estradiol over the 4-day period after treatment compared to controls ([1]; single iv dose, P=0.06): tended to be higher
- mean circulating level of letrozole during the first 96 hours ([2]; 250 μg/kg, single application): 112 ± 16.26 ng/mL
- Half-life (T1/2) ([2]; doses combined): 27.3 ± 0.42 h
- AUC(0-t) [2, 3]: 8800 ± 720 ng·h/mL
- Cmax [2, 3]: 1200 ± 250 ng/mL
- clearance [2, 3]: 0.243 mL/min/kg
- AUC(0-t) [2, 4]: 17300 ± 2000 ng·h/mL
- Cmax [2, 4]: 1700 ± 180 ng/mL
- clearance [2, 4]: 0.258 mL/min/kg
- AUC(0-t) [2, 5]: 28100 ± 2150 ng·h/mL
- Cmax [2, 5]: 2500 ± 370 ng/mL
- clearance [2, 5]: 0.308 mL/min/kg
- concentration at 96 hours ([2]; female, bovine, plasma, intravenous, 250 μg/kg given in a single dose, read-out: mean concentration of letrozole in the circulation at 96 hours): 43.7 ± 8.79 ng/mL
- half-life [2, 6]: 26.9 ± 0.95 h
- MRT [2, 6]: 31.7 ± 2 h
- half-life [2, 7]: 26.6 ± 1.18 h
- MRT [2, 7]: 33.7 ± 2.98 h
- half-life [2, 8]: 28.5 ± 1.05 h
- MRT [2, 8]: 35.8 ± 1.43 h
- AUC(0-t) [2, 9]: 18200 ± 4030 ng·h/mL
- half-life [2, 9]: 27 h
- Cmax [2, 9]: 1800 ± 270 ng/mL
- MRT [2, 9]: 34 h
- clearance [2, 9]: 0.27 mL/min/kg
- mean plasma letrozole concentration throughout the 8-day period ([2]; high dose 500 μg/kg iv): 0.63 ± 0.04 µg/mL
- mean plasma letrozole concentration throughout the 8-day period ([2]; low dose 125 μg/kg iv): 0.27 ± 0.04 µg/mL
- mean plasma letrozole concentration throughout the 8-day period ([2]; medium dose 250 μg/kg iv): 0.44 ± 0.04 µg/mL
